Test results from the kinase profiling compilation of Christmann-Franck et al. (2016).

How the values were obtained:
Experiment in all cases: KINOMEscan competition binding
Settings in all cases: compound 10.0 µM
ACVR2A (human) = ACVR2A (human) (UniProt P27037)
ADCK4 (human) = ADCK4 (human) (UniProt Q96D53)
ALK (human) = ALK (human) (UniProt Q9UM73)
AURKB (human) = AURKB (human) (UniProt Q96GD4)
BLK (human) = BLK (human) (UniProt P51451)
CAMK1G (human) = CAMK1G (human) (UniProt Q96NX5)
CAMK2A (human) = CAMK2A (human) (UniProt Q9UQM7)
Chain of CAMK2A (human) (Q9UQM7 whole entry, looked up): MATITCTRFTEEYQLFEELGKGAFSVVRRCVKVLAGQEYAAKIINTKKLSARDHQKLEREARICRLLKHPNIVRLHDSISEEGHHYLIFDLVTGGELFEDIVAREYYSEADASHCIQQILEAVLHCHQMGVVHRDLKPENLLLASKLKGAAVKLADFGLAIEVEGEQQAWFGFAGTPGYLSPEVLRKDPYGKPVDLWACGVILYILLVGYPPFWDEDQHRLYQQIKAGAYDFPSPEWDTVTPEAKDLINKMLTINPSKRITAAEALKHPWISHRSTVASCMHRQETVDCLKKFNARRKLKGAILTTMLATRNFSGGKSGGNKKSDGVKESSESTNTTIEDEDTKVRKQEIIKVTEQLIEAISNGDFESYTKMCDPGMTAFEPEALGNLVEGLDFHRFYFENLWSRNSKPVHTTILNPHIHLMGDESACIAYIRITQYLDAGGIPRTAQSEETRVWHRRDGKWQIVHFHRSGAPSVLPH

CDC42BPB (human) = CDC42BPB (human) (UniProt Q9Y5S2)
CDK18 (human) = CDK18 (human) (UniProt Q07002)
CDK5 (human) = CDK5 (human) (UniProt Q00535)
CHEK1 (human) = CHEK1 (human) (UniProt O14757)
CSNK2A2 (human) = CSNK2A2 (human) (UniProt P19784)
Chain of CSNK2A2 (human) (P19784 whole entry, looked up): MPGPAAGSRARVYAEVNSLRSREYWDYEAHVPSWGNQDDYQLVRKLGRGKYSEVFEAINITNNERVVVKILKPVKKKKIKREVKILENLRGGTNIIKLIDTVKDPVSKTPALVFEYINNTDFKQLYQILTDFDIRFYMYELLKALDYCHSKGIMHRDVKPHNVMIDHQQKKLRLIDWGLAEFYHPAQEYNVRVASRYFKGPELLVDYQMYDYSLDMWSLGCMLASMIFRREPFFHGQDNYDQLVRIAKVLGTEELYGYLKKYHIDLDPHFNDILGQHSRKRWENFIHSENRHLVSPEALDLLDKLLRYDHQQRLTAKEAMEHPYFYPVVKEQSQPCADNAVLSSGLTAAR

DCLK1 (human) = DCLK1 (human) (UniProt O15075)
EGFR (human) = EGFR (human) (UniProt P00533)
[1] = test system: EGFR (human), P00533 [752-759 del]
[2] = test system: EGFR (human), P00533 [T790M/L858R]
EIF2AK2 (human) = EIF2AK2 (human) (UniProt P19525)
IRAK4 (human) = IRAK4 (human) (UniProt Q9NWZ3)
[3] = biological target: JAK1 JH1 catalytic (human) (UniProt P23458)
MAP2K2 (human) = MAP2K2 (human) (UniProt P36507)
MAP4K1 (human) = MAP4K1 (human) (UniProt Q92918)
MAP4K3 (human) = MAP4K3 (human) (UniProt Q8IVH8)
MAPK12 (human) = MAPK12 (human) (UniProt P53778)
MAPK15 (human) = MAPK15 (human) (UniProt Q8TD08)
Chain of MAPK15 (human) (Q8TD08 whole entry, looked up): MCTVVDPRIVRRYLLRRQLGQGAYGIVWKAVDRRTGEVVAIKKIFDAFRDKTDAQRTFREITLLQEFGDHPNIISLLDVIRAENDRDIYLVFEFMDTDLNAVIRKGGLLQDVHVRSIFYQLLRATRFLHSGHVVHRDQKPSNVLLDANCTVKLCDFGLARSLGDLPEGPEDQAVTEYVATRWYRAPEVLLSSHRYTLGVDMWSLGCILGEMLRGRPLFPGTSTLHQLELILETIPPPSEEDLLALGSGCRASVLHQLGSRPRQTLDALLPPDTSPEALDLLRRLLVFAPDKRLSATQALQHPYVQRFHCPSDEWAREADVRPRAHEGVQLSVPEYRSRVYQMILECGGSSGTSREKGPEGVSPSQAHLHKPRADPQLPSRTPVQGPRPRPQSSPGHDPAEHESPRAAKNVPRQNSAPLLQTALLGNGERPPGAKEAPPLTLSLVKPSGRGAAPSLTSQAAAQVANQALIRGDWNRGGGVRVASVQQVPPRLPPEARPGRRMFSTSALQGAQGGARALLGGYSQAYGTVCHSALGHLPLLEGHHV

PIK3CB (human) = PIK3CB (human) (UniProt P42338)
PLK4 (human) = PLK4 (human) (UniProt O00444)
PRKX (human) = PRKX (human) (UniProt P51817)
PTK2 (human) = PTK2 (human) (UniProt Q05397)
RIOK3 (human) = RIOK3 (human) (UniProt O14730)
Chain of RIOK3 (human) (O14730 whole entry, looked up): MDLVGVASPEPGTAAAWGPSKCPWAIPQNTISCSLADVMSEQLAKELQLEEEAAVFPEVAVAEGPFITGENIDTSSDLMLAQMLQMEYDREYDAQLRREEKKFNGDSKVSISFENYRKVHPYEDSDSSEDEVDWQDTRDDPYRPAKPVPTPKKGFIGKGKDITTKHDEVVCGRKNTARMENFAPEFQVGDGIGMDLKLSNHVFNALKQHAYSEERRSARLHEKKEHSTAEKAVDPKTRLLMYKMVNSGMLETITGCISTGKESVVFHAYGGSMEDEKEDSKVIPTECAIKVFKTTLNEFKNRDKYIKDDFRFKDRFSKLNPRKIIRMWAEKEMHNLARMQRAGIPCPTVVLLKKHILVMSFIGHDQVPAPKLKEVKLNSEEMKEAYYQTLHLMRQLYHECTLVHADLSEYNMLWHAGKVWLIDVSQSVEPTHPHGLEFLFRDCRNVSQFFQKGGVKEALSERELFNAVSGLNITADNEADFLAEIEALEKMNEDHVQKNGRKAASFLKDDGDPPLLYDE

ROCK2 (human) = ROCK2 (human) (UniProt O75116)
Chain of ROCK2 (human) (O75116 whole entry, looked up): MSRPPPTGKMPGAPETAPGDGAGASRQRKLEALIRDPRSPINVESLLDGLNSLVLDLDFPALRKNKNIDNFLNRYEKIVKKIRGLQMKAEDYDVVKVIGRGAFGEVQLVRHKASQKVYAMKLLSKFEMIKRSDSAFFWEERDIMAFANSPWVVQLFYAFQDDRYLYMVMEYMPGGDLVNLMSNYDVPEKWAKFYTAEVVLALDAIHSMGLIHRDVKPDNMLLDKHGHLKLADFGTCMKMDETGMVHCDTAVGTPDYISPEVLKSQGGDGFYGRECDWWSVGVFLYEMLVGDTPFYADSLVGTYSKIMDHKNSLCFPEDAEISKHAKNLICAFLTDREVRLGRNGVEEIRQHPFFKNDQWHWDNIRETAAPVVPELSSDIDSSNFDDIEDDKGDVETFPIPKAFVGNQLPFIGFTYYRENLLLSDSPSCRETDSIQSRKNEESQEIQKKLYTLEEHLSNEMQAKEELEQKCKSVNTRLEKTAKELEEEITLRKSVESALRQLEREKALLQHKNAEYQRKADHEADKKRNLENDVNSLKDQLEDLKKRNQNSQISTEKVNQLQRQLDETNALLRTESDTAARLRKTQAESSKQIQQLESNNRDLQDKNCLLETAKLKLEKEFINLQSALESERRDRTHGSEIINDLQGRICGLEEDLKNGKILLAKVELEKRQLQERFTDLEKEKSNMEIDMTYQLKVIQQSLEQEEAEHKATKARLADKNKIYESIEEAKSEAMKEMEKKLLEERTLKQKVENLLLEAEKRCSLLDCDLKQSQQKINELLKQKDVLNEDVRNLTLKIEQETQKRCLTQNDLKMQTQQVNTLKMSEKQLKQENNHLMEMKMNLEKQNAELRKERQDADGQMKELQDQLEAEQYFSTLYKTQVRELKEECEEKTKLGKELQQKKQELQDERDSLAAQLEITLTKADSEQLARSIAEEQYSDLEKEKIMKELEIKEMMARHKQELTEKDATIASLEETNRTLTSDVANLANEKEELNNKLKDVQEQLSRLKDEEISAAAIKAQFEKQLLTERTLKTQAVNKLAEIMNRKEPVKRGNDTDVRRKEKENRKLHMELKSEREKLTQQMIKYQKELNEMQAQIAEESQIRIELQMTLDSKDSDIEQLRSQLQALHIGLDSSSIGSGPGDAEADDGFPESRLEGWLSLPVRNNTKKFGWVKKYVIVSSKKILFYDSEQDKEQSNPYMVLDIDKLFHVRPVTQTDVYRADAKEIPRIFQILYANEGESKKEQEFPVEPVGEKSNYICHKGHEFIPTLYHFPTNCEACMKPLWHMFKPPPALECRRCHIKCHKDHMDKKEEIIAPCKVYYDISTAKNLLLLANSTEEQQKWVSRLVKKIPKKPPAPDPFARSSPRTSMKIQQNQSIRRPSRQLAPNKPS

SGK3 (human) = SGK3 (human) (UniProt Q96BR1)
SIK2 (human) = SIK2 (human) (UniProt Q9H0K1)
STK10 (human) = STK10 (human) (UniProt O94804)
STK33 (human) = STK33 (human) (UniProt Q9BYT3)
TBK1 (human) = TBK1 (human) (UniProt Q9UHD2)
Chain of TBK1 (human) (Q9UHD2 whole entry, looked up): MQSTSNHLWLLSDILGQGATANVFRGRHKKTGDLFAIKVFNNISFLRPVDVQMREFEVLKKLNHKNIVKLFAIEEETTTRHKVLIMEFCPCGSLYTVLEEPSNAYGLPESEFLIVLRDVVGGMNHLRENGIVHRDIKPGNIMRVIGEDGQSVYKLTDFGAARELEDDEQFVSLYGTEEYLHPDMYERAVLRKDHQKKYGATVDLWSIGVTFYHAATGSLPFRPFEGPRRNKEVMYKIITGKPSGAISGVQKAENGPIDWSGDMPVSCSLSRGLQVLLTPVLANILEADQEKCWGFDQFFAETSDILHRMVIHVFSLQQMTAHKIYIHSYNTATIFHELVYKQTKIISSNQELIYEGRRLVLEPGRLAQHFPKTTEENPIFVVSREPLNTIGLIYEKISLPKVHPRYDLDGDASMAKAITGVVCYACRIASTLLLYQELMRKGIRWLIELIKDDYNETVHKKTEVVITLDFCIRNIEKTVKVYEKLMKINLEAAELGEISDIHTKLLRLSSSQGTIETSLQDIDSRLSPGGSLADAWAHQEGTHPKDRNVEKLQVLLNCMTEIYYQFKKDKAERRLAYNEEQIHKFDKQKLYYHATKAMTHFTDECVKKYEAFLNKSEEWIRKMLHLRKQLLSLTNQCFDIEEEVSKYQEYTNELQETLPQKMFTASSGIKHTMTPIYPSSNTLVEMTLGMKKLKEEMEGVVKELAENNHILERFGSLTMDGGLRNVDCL

TRPM6 (human) = TRPM6 (human) (UniProt Q9BX84)
TXK (human) = TXK (human) (UniProt P42681)
[4] = biological target: TYK2 JH1 catalytic (human) (UniProt P29597)
TYRO3 (human) = TYRO3 (human) (UniProt Q06418)
Chain of TYRO3 (human) (Q06418 whole entry, looked up): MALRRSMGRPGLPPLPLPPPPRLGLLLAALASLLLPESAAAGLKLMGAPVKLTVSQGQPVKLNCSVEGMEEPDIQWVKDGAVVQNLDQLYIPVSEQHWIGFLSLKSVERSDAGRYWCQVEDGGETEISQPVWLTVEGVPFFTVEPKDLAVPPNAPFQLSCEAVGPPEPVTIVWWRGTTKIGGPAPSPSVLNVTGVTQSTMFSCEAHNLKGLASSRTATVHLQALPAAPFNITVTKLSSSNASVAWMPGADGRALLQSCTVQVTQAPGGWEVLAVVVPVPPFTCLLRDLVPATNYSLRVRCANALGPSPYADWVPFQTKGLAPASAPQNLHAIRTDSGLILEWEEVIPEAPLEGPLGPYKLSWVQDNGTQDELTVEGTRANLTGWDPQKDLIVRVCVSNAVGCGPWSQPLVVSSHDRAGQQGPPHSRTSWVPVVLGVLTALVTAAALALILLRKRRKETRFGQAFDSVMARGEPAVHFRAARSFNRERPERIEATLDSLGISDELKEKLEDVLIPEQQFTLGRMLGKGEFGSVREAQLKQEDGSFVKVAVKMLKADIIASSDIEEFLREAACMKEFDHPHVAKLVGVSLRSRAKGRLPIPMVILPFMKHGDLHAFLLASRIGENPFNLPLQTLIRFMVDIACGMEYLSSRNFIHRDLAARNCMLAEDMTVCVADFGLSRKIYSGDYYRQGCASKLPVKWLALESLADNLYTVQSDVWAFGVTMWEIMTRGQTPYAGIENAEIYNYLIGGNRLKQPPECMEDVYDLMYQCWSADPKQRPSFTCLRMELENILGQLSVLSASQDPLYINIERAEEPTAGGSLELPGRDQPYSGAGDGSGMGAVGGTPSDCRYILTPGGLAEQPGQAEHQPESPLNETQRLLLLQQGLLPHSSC

ZAP70 (human) = ZAP70 (human) (UniProt P43403)

SMILES	kinase still bound, per cent of control (ACVR2A (human))	kinase still bound, per cent of control (ADCK4 (human))	kinase still bound, per cent of control (ALK (human))	kinase still bound, per cent of control (AURKB (human))	kinase still bound, per cent of control (BLK (human))	kinase still bound, per cent of control (CAMK1G (human))	kinase still bound, per cent of control (CAMK2A (human))	kinase still bound, per cent of control (CDC42BPB (human))	kinase still bound, per cent of control (CDK5 (human))	kinase still bound, per cent of control (CHEK1 (human))	kinase still bound, per cent of control (CSNK2A2 (human))	kinase still bound, per cent of control (DCLK1 (human))	kinase still bound, per cent of control (EGFR (human))	kinase still bound, per cent of control [1]	kinase still bound, per cent of control (EIF2AK2 (human))	kinase still bound, per cent of control (IRAK4 (human))	kinase still bound, per cent of control [3]	kinase still bound, per cent of control (MAP2K2 (human))	kinase still bound, per cent of control (MAP4K1 (human))	kinase still bound, per cent of control (MAP4K3 (human))	other results
C=CC(=O)Nc1cc(-n2c(=O)ccc3cnc4ccc(-c5cn[nH]c5)cc4c32)ccc1C	76%	86%	100%	97%	2.4%	79%	21%	97%	84%	100%	1.2%	94%	30%	23%	94%	36%	97%	83%	90%	73%	kinase still bound, per cent of control (CDK18 (human)): 88%; kinase still bound, per cent of control [2]: 18%; kinase still bound, per cent of control (MAPK12 (human)): 98%; kinase still bound, per cent of control (MAPK15 (human)): 24%; kinase still bound, per cent of control (PIK3CB (human)): 62%; kinase still bound, per cent of control (PLK4 (human)): 66%; kinase still bound, per cent of control (PRKX (human)): 100%; kinase still bound, per cent of control (PTK2 (human)): 96%; kinase still bound, per cent of control (RIOK3 (human)): 31%; kinase still bound, per cent of control (ROCK2 (human)): 72%; kinase still bound, per cent of control (SGK3 (human)): 96%; kinase still bound, per cent of control (SIK2 (human)): 62%; kinase still bound, per cent of control (STK10 (human)): 94%; kinase still bound, per cent of control (STK33 (human)): 100%; kinase still bound, per cent of control (TBK1 (human)): 100%; kinase still bound, per cent of control (TRPM6 (human)): 71%; kinase still bound, per cent of control (TXK (human)): 7%; kinase still bound, per cent of control [4]: 29%; kinase still bound, per cent of control (TYRO3 (human)): 100%; kinase still bound, per cent of control (ZAP70 (human)): 48%
COc1ccc(N(C(=O)Oc2c(C)cccc2C)c2ccnc(Nc3ccc(N4CCN(C)CC4)cc3)n2)c(OC)c1	0.75%	20%	0.35%	18%	0.05%	73%	84%	2.9%	98%	100%	95%	84%	0.4%	1%	92%	100%	36%	46%	0.25%	1.4%	kinase still bound, per cent of control (CDK18 (human)): 100%; kinase still bound, per cent of control [2]: 14%; kinase still bound, per cent of control (MAPK12 (human)): 75%; kinase still bound, per cent of control (MAPK15 (human)): 76%; kinase still bound, per cent of control (PIK3CB (human)): 100%; kinase still bound, per cent of control (PLK4 (human)): 37%; kinase still bound, per cent of control (PRKX (human)): 41%; kinase still bound, per cent of control (PTK2 (human)): 32%; kinase still bound, per cent of control (RIOK3 (human)): 5.1%; kinase still bound, per cent of control (ROCK2 (human)): 88%; kinase still bound, per cent of control (SGK3 (human)): 100%; kinase still bound, per cent of control (SIK2 (human)): 7.6%; kinase still bound, per cent of control (STK10 (human)): 0%; kinase still bound, per cent of control (STK33 (human)): 28%; kinase still bound, per cent of control (TBK1 (human)): 74%; kinase still bound, per cent of control (TRPM6 (human)): 100%; kinase still bound, per cent of control (TXK (human)): 0.45%; kinase still bound, per cent of control [4]: 45%; kinase still bound, per cent of control (TYRO3 (human)): 18%; kinase still bound, per cent of control (ZAP70 (human)): 79%
N#CCNC(=O)c1ccc(-c2ccnc(Nc3ccc(N4CCOCC4)cc3)n2)cc1	75%	33%	100%	69%	100%	30%	26%	42%	100%	100%	6.2%	52%	100%	72%	47%	64%	13%	100%	11%	57%	kinase still bound, per cent of control (MAPK12 (human)): 100%; kinase still bound, per cent of control (MAPK15 (human)): 0.25%; kinase still bound, per cent of control (PIK3CB (human)): 100%; kinase still bound, per cent of control (PLK4 (human)): 15%; kinase still bound, per cent of control (PRKX (human)): 74%; kinase still bound, per cent of control (PTK2 (human)): 85%; kinase still bound, per cent of control (RIOK3 (human)): 0%; kinase still bound, per cent of control (ROCK2 (human)): 0.7%; kinase still bound, per cent of control (SGK3 (human)): 59%; kinase still bound, per cent of control (SIK2 (human)): 14%; kinase still bound, per cent of control (STK10 (human)): 100%; kinase still bound, per cent of control (STK33 (human)): 98%; kinase still bound, per cent of control (TBK1 (human)): 10%; kinase still bound, per cent of control (TRPM6 (human)): 100%; kinase still bound, per cent of control (TXK (human)): 100%; kinase still bound, per cent of control [4]: 0.25%; kinase still bound, per cent of control (TYRO3 (human)): 100%; kinase still bound, per cent of control (ZAP70 (human)): 91%
